Columns and labels:
Type in all cases: in vivo
[1] = system: Codling moth, Cydiapomonella—neonate larvae; assay: Codling moth neonate larvae bioassay by diet incorporation, mortality; conditions: for LC50: Cydia pomonella, 48 h; for LC50 / LC90: mortality 2 days after treatment (D + 2), diet incorporation
Description: Codling moth, Cydiapomonella—neonate larvae • Bioassay by diet incorporation • Mortality assessment 2 days after treatment • a.i. refers to active ingredient
(§1) LC stands for “Lethal Concentration”. LC values refer to the concentration of a chemical required to kill a certain proportion of a population of pests. The concentration of the chemical that kills 50 percent of the pests during the observation period is the LC50 value and a concentration that kills 90 percent of a population is LC90.

[2] = system: Aphids Myzus persicae—larvae; assay: Aphid larvae on radish, boom sprayer application (IRAC no 019 adapted), mortality
Description: Aphids Myzus persicae—larvae • Study based on IRAC no 019 methods, application method adapted • Plant: radish • Application on petri dish with larvae with a boom sprayer apparatus • Assessment of mortality 3 and 4 days after application • a.i. refers to active ingredient
(§2) LD stands for “Lethal Dose”. LD50 is the amount of an ingested substance that kills 50 percent of a test sample and […] is the lethal dose that kills 90 percent of the test sample.

[3] = system: Soybean looper, Chrysodeixis includens—3rd larval stage; assay: Soybean looper 3rd larval stage bioassay by diet surface incorporation, mortality
Description: Soybean looper, Chrysodeixis includens—3rd larval stage • Bioassay by diet surface incorporation • Mortality assessment 3 days after treatment • a.i. refers to active ingredient
as §1

[4] = system: White flies, Trialeurodes vaporarium—larvae; assay: White fly larvae on bean, boom sprayer application (IRAC no 015 adapted), mortality; conditions: for LD50 / LD90: boom sprayer
Description: White flies, Trialeurodes vaporarium—larvae • Study based on IRAC no 015 methods, stage and application method adapted • Plant: bean • Application: On the petri dish with larvae with a boom sprayer apparatus • Assessment of mortality at 7, 9 and 14 days after application • a.i. refers to active ingredient
as §2

[5] = mortality 3 days after treatment (D + 3), diet surface incorporation

`CN(C)C(CSC(N)=O)CSC(N)=O` [Cartap, S, S-[2-(dimethylamino)-1,3-propanediyl] dicarbamothioate, reference compound] was tested, and the LC50 [1] was 10.1 µg/mL, the LC90 [1] was 104.80 μg of a.i./ml of diet and the LD50 ([2]; D +3, radish) was <18.18 g a.i./ha. For the same molecule, the LD90 ([2]; D +3, radish) was 36.70 g a.i./ha, the LD50 ([2]; D +4, radish) was <18.18 g a.i./ha and the LD90 ([2]; D +4, radish) was 16 g a.i./ha. The LC90 [3, 5] was 908,897 μg of a.i./ml of diet, the LD50 ([4]; D +7, bean) was 213.7 g a.i./ha and the LD90 ([4]; D +7, bean) was 2.3 × 10^6 g a.i./ha. The LD50 ([4]; D +9, bean) was 15.6 g a.i./ha, the LD90 ([4]; D +9, bean) was 4,566.3 g a.i./ha and the LD50 ([4]; D +14, bean) was 10.4 g a.i./ha. The LD90 ([4]; D +14, bean) was 910.4 g a.i./ha.
In the case of `CN(C)C1CSSSC1.Cl` [Thiocyclam HCl, N,N-dimethyl-1,2,3-trithian-5-ylamine hydrochloride], the LC50 [1] was 2.57 µg/mL, the “LC50 and LC90 compared to thiocyclam oxalate” value ([1]; example 1, comparison in words) was “significantly lower concentrations than thiocyclam oxalate” and the “times less at LC50 compared to cartap” value ([1]; example 1, ratio versus cartap) was “approximately 4 times”. For the same molecule, the “times less at LC90 compared to cartap” value ([1]; example 1, ratio versus cartap) was “approximately 9 times”, the LC90 [1] was 10.80 μg of a.i./ml of diet and the LD50 ([2]; D +3, radish) was 12.04 g a.i./ha. For the same molecule, the LD90 ([2]; D +3, radish) was 30.51 g a.i./ha, the LD50 ([2]; D +4, radish) was 7.66 g a.i./ha and the LD90 ([2]; D +4, radish) was 27.07 g a.i./ha. For the same molecule, the LC50 ([3]; 72 h, mortality 3 days after treatment (D + 3), diet surface incorporation) was 8990 µg/mL, the “LC90 compared to cartap” value ([3]; example 2, comparison in words) was “more than three times lower” and the “LC90 compared to thiocyclam oxalate” value ([3]; example 2, comparison in words) was “orders of magnitude smaller”. The “times less at LC50 than cartap” value ([3]; example 2, ratio versus cartap) was “approximately 6 times”, the “times less at LC50 than thiocyclam oxalate” value ([3]; example 2, ratio versus thiocyclam oxalate) was “approximately 20 times” and the LC90 [3, 5] was 251,759 μg of a.i./ml of diet. The LD50 ([4]; D +7, bean) was 2.22 g a.i./ha, the LD90 ([4]; D +7, bean) was 1,899 g a.i./ha and the LD50 ([4]; D +9, bean) was 2.23 g a.i./ha. For the same molecule, the LD90 ([4]; D +9, bean) was 4,905 g a.i./ha, the LD50 ([4]; D +14, bean) was 0.82 g a.i./ha and the LD90 ([4]; D +14, bean) was 7,910 g a.i./ha. For the same molecule, the “LD90 compared to cartap” value ([4]; example 4, days 7 and 9) was “lower application concentration compared to cartap”.

Source: US11591309B2, “Manufacturing method for and insecticidal compositions comprising thiocyclam hydrochloride” (Arysta L[…] America, LLC, priority 2016, dated 2023)
